Counter-ions that a name gives are not always drawn.
Tests used:
Type in all cases: in vivo
[1] = tested on: ECHCG (Echinochloa crusgalli (L.) Beauv., barnyardgrass); assay: Example I postemergence foliar-applied mixtures, direct seeded rice weeds, greenhouse: ECHCG
Procedure: (§1) Seeds or nutlets of the desired test plant species were planted in a soil matrix prepared by mixing a loam or sandy loam soil (e.g., 28.6 percent silt, 18.8 percent clay, and 52.6 percent sand, with a pH of about 5.8 and an organic matter content of about 1.8 percent) and calcareous grit in an 80 to 20 ratio. The soil matrix was contained in plastic pots with a volume of 1 quart and a surface area of 83.6 square centimeters (cm^2). […] The plants were grown for 8-22 days in a greenhouse with an approximate 14 hr photoperiod which was maintained at about 29° C. during the day and 26° C. during the night. Nutrients (Peters Excel® 15-5-15 5-Ca 2-Mg and iron chelate) were applied in the irrigation solution as needed and water was added on a regular basis. Supplemental lighting was provided with overhead metal halide 1000-Watt lamps as necessary. The plants were employed for testing when they reached the first through fourth true leaf stage.
(§2) Treatments consisted of the acid or esters of 4-amino-3-chloro-5-fluoro-6-(4-chloro-2-fluoro-3-methoxy-phenyl)pyridine-2-carboxylic acid (Compound A), each formulated as an SC (suspension concentrate), and various herbicidal components alone and in combination. Forms of compound A were applied on an acid equivalent basis.
(§3) For treatments comprised of formulated compounds, measured amounts of compounds were placed individually in 25 mL glass vials and diluted in a volume of 1.25% (v/v) Agri-Dex® crop oil concentrated to obtain 12× stock solutions. […] Application solutions were prepared by adding an appropriate amount of each stock solution (e.g., 1 mL) and diluted to the appropriate final concentrations with the addition of 10 mL of an aqueous mixture of 1.25% (v/v) crop oil concentrate so that the final spray solutions contained 1.25+/−0.05% (v/v) crop oil concentrate.
(§4) All stock solutions and applications solutions were visually inspected for compound compatibility prior to application. Spray solutions were applied to the plant material with an overhead Mandel track sprayer equipped with a 8002E nozzles calibrated to deliver 187 L/ha over an application area of 0.503 m^2 at a spray height of 18 to 20 inches (46 to 50 cm) above average plant canopy height. Control plants were sprayed in the same manner with the solvent blank.
(§5) The treated plants and control plants were placed in a greenhouse as described above and watered by sub-irrigation to prevent wash-off of the test compounds. After approximately 3 weeks, the condition of the test plants as compared with that of the untreated plants was determined visually and scored on a scale of 0 to 100 percent where 0 corresponds to no injury or growth inhibition and 100 corresponds to complete kill.
(§6) Colby's equation was used to determine the herbicidal effects expected from the mixtures (Colby, S. R. 1967. Calculation of the synergistic and antagonistic response of herbicide combinations. Weeds 15:20-22.).

[2] = tested on: DIGSA (Digitaria sanguinalis (L.) Scop., large crabgrass); assay: Example I postemergence foliar-applied mixtures, direct seeded rice weeds, greenhouse: DIGSA
Procedure: as §1, §2, §3, §4, §5, §6

[3] = tested on: IPOHE (Ipomoea hederacea Jacq., ivyleaf morningglory); assay: Example I postemergence foliar-applied mixtures, direct seeded rice weeds, greenhouse: IPOHE
Procedure: as §1, §2, §3, §4, §5, §6

[4] = tested on: SORHA (Sorghum halepense (L.) Pers., johnsongrass); assay: Example III postemergence foliar-applied mixtures, row crop weeds (corn, soybean), greenhouse: SORHA
Procedure: Seeds or nutlets of the desired test plant species were planted in a soil matrix prepared by mixing a loam or sandy loam soil (e.g., 43 percent silt, 19 percent clay, and 38 percent sand, with a pH of about 8.1 and an organic matter content of about 1.5 percent) and calcareous grit in an 80 to 20 ratio. The soil matrix was contained in plastic pots with a surface area of 84.6 square centimters (cm^2) and a volume of 560 cubic centimeters (cm^3). […] The plants were grown for 7-31 days (d) in a greenhouse with an approximate 15 hour (h) photoperiod which was maintained at about 23-29° C. during the day and 22-28° C. during the night. Nutrients (Peters Excel® 15-5-15 5-Ca 2-Mg) and water were added on a regular basis and supplemental lighting was provided with overhead metal halide 1000-Watt lamps as necessary. The plants were employed for testing when they reached the first, second, or third true leaf stage.
Treatments consisted of the acid or esters of 4-amino-3-chloro-5-fluoro-6-(4-chloro-2-fluoro-3-methoxy-phenyl)pyridine-2-carboxylic acid (Compound A), each formulated as an
SC (suspension concentrate), and various herbicidal components alone and in combination. Forms of compound A were applied on an acid equivalent basis.
Other herbicidal components were applied on an acid equivalent or active ingredient basis and included the 5-enolpyruvylshikimate-3-phosphate synthase (EPSPS)-inhibiting herbicide, glyphosate dimethylamine salt, formulated as Durango DMA® and the glutamine synthase (GS)-inhibiting herbicide, glufosinate ammonium, formulated as Ignite® 280.
For treatments comprised of formulated compounds, measured amounts of compounds were placed individually in 25 mL glass vials and diluted in a volume of 1.5% (v/v) Agri-dex® crop oil concentrate to obtain 6× stock solutions. […] Application solutions were prepared by adding an appropriate amount of each stock solution (typically 2 mL) and diluted to the appropriate final concentrations with the addition of an aqueous mixture of 1.5% (v/v) crop oil concentrate and water so that the final spray solutions contained 1.25% (v/v) crop oil concentrate.
All stock solutions and applications solutions were visually inspected for compound compatibility prior to application. Compound requirements are based upon a 12 mL application volume at a rate of 187 liters per hectare (L/ha). Formulated compounds were applied to the plant material with an overhead Mandel track sprayer equipped with 8002E nozzles calibrated to deliver 187 L/ha over an application area of 0.503 square meters (m^2) at a spray height of 18 to 20 inches (46 to 50 cm) above the average plant canopy height. Control plants were sprayed in the same manner with the solvent blank.
as §5, with “2” for “3”
The following equation was used to calculate the expected activity of mixtures containing two active ingredients, A and B: […]

[5] = tested on: LEFCH (Leptochloa chinensis (L.) Nees, Chinese sprangletop); assay: Example I postemergence foliar-applied mixtures, direct seeded rice weeds, greenhouse: LEFCH
Procedure: as §1, §2, §3, §4, §5, §6

[6] = tested on: ECHCO (Echinochloa colona (L.) Link, junglerice); assay: Example I postemergence foliar-applied mixtures, direct seeded rice weeds, greenhouse: ECHCO
Procedure: as §1, §2, §3, §4, §5, §6

[7] = Compound A Acid alone, 4.38 gae/ha
[8] = Compound A Acid alone, 8.75 gae/ha
[9] = Compound A Acid alone, 17.5 gae/ha
[10] = Compound A Acid alone, 19.4 gae/ha
[11] = Compound A Acid alone, 3.75 gae/ha
[12] = Compound A Benzyl Ester alone, 4.38 gae/ha
[13] = Compound A Benzyl Ester alone, 8.75 gae/ha
[14] = Compound A Benzyl Ester alone, 8 gae/ha
[15] = Compound A Benzyl Ester alone, 16 gae/ha
[16] = Compound A Benzyl Ester alone, 17.5 gae/ha
[17] = glufosinate ammonium alone, 135.5 gae/ha
[18] = glufosinate ammonium alone, 271 gae/ha

## COc1c(Cl)ccc(-c2nc(C(=O)O)c(Cl)c(N)c2F)c1F [Compound A Acid, 4-amino-3-chloro-6-(4-chloro-2-fluoro-3-methoxyphenyl)-5-fluoropyridine-2-carboxylic acid]
[1]; [7]
  Visual Weed Control (%) - 21 DAA ECHCG Obs: 15%
[1]; [8]
  Visual Weed Control (%) - 21 DAA ECHCG Obs: 50%
[2]; [7]
  Visual Weed Control (%) - 21 DAA DIGSA Obs: 35%
[2]; [8]
  Visual Weed Control (%) - 21 DAA DIGSA Obs: 50%
[2]; [9]
  Visual Weed Control (%) - 21 DAA DIGSA Obs: 40%
[2]; [10]
  Visual Weed Control (%) - 20 DAA DIGSA Obs: 13%
[3]; [7]
  Visual Weed Control (%) - 21 DAA IPOHE Obs: 10%
[3]; [8]
  Visual Weed Control (%) - 21 DAA IPOHE Obs: 35%
[3]; [9]
  Visual Weed Control (%) - 21 DAA IPOHE Obs: 45%
[4]; [11]
  Visual Weed Control (%) - 13 DAA SORHA Obs: 0%
  Visual Weed Control (%) - 16 DAA SORHA Obs: 0%
[4]; Compound A Acid alone, 7.5 gae/ha
  Visual Weed Control (%) - 13 DAA SORHA Obs: 0%
[4]; Compound A Acid alone, 15 gae/ha
  Visual Weed Control (%) - 13 DAA SORHA Obs: 0%
[5]; Compound A Acid alone, 17.5 gae/ha (Table 2)
  Visual Weed Control (%) - 21 DAA LEFCH Obs: 30%
[5]; Compound A Acid alone, 17.5 gae/ha (Tables 1, 9)
  Visual Weed Control (%) - 21 DAA LEFCH Obs: 0%
[5]; [10]
  Visual Weed Control (%) - 20 DAA LEFCH Obs: 5%
[6]; Compound A Acid alone, 4.38 gae/ha (Table 2)
  Visual Weed Control (%) - 21 DAA ECHCO Obs: 60%
[6]; Compound A Acid alone, 4.38 gae/ha (Tables 1, 9)
  Visual Weed Control (%) - 21 DAA ECHCO Obs: 70%
[6]; Compound A Acid alone, 8.75 gae/ha (Table 2)
  Visual Weed Control (%) - 21 DAA ECHCO Obs: 90%
[6]; Compound A Acid alone, 8.75 gae/ha (Tables 1, 9)
  Visual Weed Control (%) - 21 DAA ECHCO Obs: 75%

## COc1c(Cl)ccc(-c2nc(C(=O)OCc3ccccc3)c(Cl)c(N)c2F)c1F [Compound A Benzyl Ester]
[1]; [12]
  Visual Weed Control (%) - 21 DAA ECHCG Obs: 10%
[1]; [13]
  Visual Weed Control (%) - 21 DAA ECHCG Obs: 85%
[2]; [14]
  Visual Weed Control (%) - 21 DAA DIGSA Obs: 25%
[2]; [15]
  Visual Weed Control (%) - 20 DAA DIGSA Obs: 18%
  Visual Weed Control (%) - 21 DAA DIGSA Obs: 30%
[3]; [12]
  Visual Weed Control (%) - 21 DAA IPOHE Obs: 10%
[3]; [14]
  Visual Weed Control (%) - 21 DAA IPOHE Obs: 10%
[3]; [13]
  Visual Weed Control (%) - 21 DAA IPOHE Obs: 10%
[3]; [15]
  Visual Weed Control (%) - 20 DAA IPOHE Obs: 18%
  Visual Weed Control (%) - 21 DAA IPOHE Obs: 10%
[3]; [16]
  Visual Weed Control (%) - 21 DAA IPOHE Obs: 25%
[3]; Compound A Benzyl Ester alone, 32 gae/ha
  Visual Weed Control (%) - 21 DAA IPOHE Obs: 45%
[4]; Compound A Benzyl Ester alone, 3.75 gae/ha
  Visual Weed Control (%) - 13 DAA SORHA Obs: 0%
[4]; Compound A Benzyl Ester alone, 7.5 gae/ha
  Visual Weed Control (%) - 13 DAA SORHA Obs: 0%
[4]; Compound A Benzyl Ester alone, 15 gae/ha
  Visual Weed Control (%) - 13 DAA SORHA Obs: 10%
[5]; [12]
  Visual Weed Control (%) - 21 DAA LEFCH Obs: 0%
[5]; [13]
  Visual Weed Control (%) - 21 DAA LEFCH Obs: 40%
[5]; [16]
  Visual Weed Control (%) - 21 DAA LEFCH Obs: 45%
[6]; [12]
  Visual Weed Control (%) - 21 DAA ECHCO Obs: 70%
[6]; [13]
  Visual Weed Control (%) - 21 DAA ECHCO Obs: 75%

## CP(=O)(O)CCC(N)C(=O)O (stereo not drawn) [Glufosinate ammonium salt, 2-amino-4-(hydroxymethylphosphinyl)butanoic acid monoammonium salt, reference compound]
[1]; [17]
  Visual Weed Control (%) - 21 DAA ECHCG Obs: 60%
[1]; [18]
  Visual Weed Control (%) - 21 DAA ECHCG Obs: 10%
[2]; [17]
  Visual Weed Control (%) - 21 DAA DIGSA Obs: 0%
[3]; glufosinate ammonium alone, 112.5 gai/ha
  Visual Weed Control (%) - 21 DAA IPOHE Obs: 10%
[3]; glufosinate ammonium alone, 542 gai/ha
  Visual Weed Control (%) - 20 DAA IPOHE Obs: 50%
[4]; [18]
  Visual Weed Control (%) - 13 DAA SORHA Obs: 20%
[4]; glufosinate ammonium alone, 542 gae/ha
  Visual Weed Control (%) - 13 DAA SORHA Obs: 25%
[5]; [17]
  Visual Weed Control (%) - 21 DAA LEFCH Obs: 0%
[5]; [18]
  Visual Weed Control (%) - 21 DAA LEFCH Obs: 10%
[6]; [17]
  Visual Weed Control (%) - 21 DAA ECHCO Obs: 0%
[6]; [18]
  Visual Weed Control (%) - 21 DAA ECHCO Obs: 0%

From patent US20140031227A1, “HERBICIDAL COMPOSITIONS COMPRISING 4-AMINO-3-CHLORO-5-FLUORO-6-(4-CHLORO-2-FLUORO-3-METHOXYPHENYL) PYRIDINE-2-CARBOXYLIC ACID OR A DERIVATIVE THEREOF AND GLYPHOSATE OR GLUFOSINATE” (DOW AGROSCIENCES LLC, priority 2012, published 2014)
